According to patent publication US20130217778A1, “METHODS AND COMPOSITIONS FOR THE IMPROVEMENT OF SKELETAL MUSCLE FUNCTION IN A MAMMAL” (priority 2010, published 2013):

Assays:
Assay type in all cases: cell-based
[1] = tested on: human Duchenne muscular dystrophy (DMD) muscle tissue (mBAM); assay: MFAS fatigue assay of human DMD mBAMs; conditions: low concentrations, FIGS. 10A-10C
Description: (§1) High glucose tissue culture medium (4.5 g/l) was used in all experiments to maintain glucose levels well above normal human blood plasma levels (0.9 to 1.8 g/l) and, thereby, minimize drug action through increased glucose availability to the muscle cells. Varying concentrations of metformin (Sigma-Aldrich Cat. No. D15,095-9; 1,1-dimethylbiguanide hydrochloride) were added to tissue culture medium of mBAMs when the mBAMs had reached a plateau of maximal tetanic force, which was measured in a MyoForce Analysis System (MFAS™) 24 hours later. Every 24 hours, fresh metformin was added to fresh tissue culture medium, and tetanic forces were measured every 24 hours for 3-4 days. Fatigue was assayed after 3-4 days of metformin treatment by 15-20 repetitive tetanic stimulations of each mBAM at 14V, 60 Hz for 2 seconds every 4-5 seconds. Force is determined after each stimulation and compared to the initial force determined after the first stimulation relative to untreated controls. (Mean±S.E.M. of 3-8 samples per group was calculated and statistical analyses performed by t-tests.)
The immortalized muscle cells were tissue engineered into contractile muscle tissue (mBAMs), and muscle force and fatigue were measured as described above. High glucose tissue culture medium (4.5 g/l) was used to maintain glucose levels well above normal human blood plasma levels (0.9 to 1.8 g/l) and, thereby, minimize drug action through increased glucose availability to the muscle cells. […] Every 24 hours, fresh biguanide was added in fresh medium and tetanic force measured for a total of 3-4 days.

[2] = tested on: normal mouse skeletal muscle tissue (mBAM); assay: MFAS tetanic force of mBAMs from normal mouse leg muscle cells
Description: as §1
High glucose tissue culture medium (4.5 g/l) was used in all experiments to maintain glucose levels well above normal human blood plasma levels (0.9 to 1.8 g/l) and, thereby, minimize drug action through increased glucose availability to the muscle cells.

[3] = tested on: normal human muscle tissue (mBAM); assay: MFAS tetanic force of mBAMs from normal human vastus lateralis muscle cells; conditions: 3-4 days of exposure, FIGS. 7A-7D
Description: as §1

[4] = tested on: human Duchenne muscular dystrophy (DMD) muscle tissue (mBAM); assay: MFAS tetanic force of mBAMs from immortalized Duchenne muscular dystrophy muscle cells; conditions: 3-4 days of exposure, FIGS. 9A, 9B, 9D
Description: as §1
The immortalized muscle cells were tissue engineered into contractile muscle tissue (mBAMs), and muscle force and fatigue were measured as described above. […] Every 24 hours, fresh biguanide was added in fresh medium and tetanic force measured for a total of 3-4 days.

[5] = tested on: mdx murine muscle tissue (mBAM); assay: MFAS maximal tetanic force of mBAMs from mdx mouse muscle cells; conditions: low concentrations experiment, four days of exposure, FIG. 4A
Excerpt: (§2) Conditionally immortalized skeletal muscle cells from the mdx mouse muscle (Morgan et al., Dev Biol. 162: 486-498, 1994) were tissue engineered into contractile muscle tissue (mBAMs), as described herein. (See also, e.g., Vandenburgh et al., Muscle and Nerve 37: 438-447, 2008; Vandenburgh et al., Treat NMD Meeting, 2009). Briefly, several hundred thousand proliferating myoblasts were mixed with a solution of extracellular matrix (collagen or fibrin) and pipetted into custom wells containing two flexible “posts” (FIG. 1A). The cell/matrix mixture gelled around the tops of the posts, forming a defined tubular structure (FIG. 1B). […] Maximal tetanic force (i.e., muscle strength) was measured by imaging the deflection of the attachment posts and converting the distance of deflection into force, as illustrated in FIGS. 2A-2B.
(§3) High glucose tissue culture medium (4.5 g/l) was used in all experiments to maintain glucose levels well above normal human blood plasma levels (0.9 to 1.8 g/l) and, thereby, minimize drug action through increased glucose availability to the muscle cells. Varying concentrations of metformin (Sigma-Aldrich Cat. No. D15,095-9; 1,1-dimethylbiguanide hydrochloride) were added to tissue culture medium of mBAMs when the mBAMs had reached a plateau of maximal tetanic force, which was measured in a MyoForce Analysis System (MFAS™) 24 hours later. […]

[6] = tested on: mdx murine skeletal muscle tissue (mBAM); assay: MFAS fatigue assay (repetitive tetanic stimulation) of mdx mouse mBAMs; conditions: repetitive tetanic stimulation after 3-4 days of treatment, FIG. 4B
Excerpt: as §2, §3

SMILES	effect on the rate of muscle fatigue with repetitive stimulations [1]	concentration that significantly increased tetanic force ([2]; after 3 days of treatment, FIG. 5C) [µg/mL]	concentrations that increased tetanic force generated by the muscle tissue [3]	concentrations that increased tetanic force generated by the muscle tissue [4] [µg/mL]	concentration that significantly increased maximal tetanic force generated by mBAM muscle tissue [5] [µg/mL]	concentration that increased tetanic force generated by the muscle tissue ([2]; 3-4 days of exposure, FIGS. 5A-5B) [µg/mL]	concentration that significantly decreased the rate of muscle fatigue [6] [µg/mL]
N=C(N)NC(=N)NCCc1ccccc1 [phenformin, Phenformin]	decreased the rate of muscle fatigue	–	–	–	–	–	–
CC(C)NC(=N)NC(=N)Nc1ccc(Cl)cc1 [proguanil, 1-(4-chlorophenyl)-5-isopropyl-biguanide]	–	0.001	less than 0.0001 μg/ml	≤ 0.00006	–	–	–
CCCCNC(=N)NC(=N)N [buformin, Buformin]	decreased the rate of muscle fatigue	–	less than 0.1 μg/ml	–	–	–	–
CN(C)C(=N)NC(=N)N [metformin, 1,1-dimethylimido-dicarbonimidic diamide]	decreased the rate of muscle fatigue	–	–	–	0.0006	0.0006	0.000001
